Measured values: patent publication US20120208781A1, “AMINOGLYCOSIDE DOSING REGIMENS” (Achaogen, Inc., priority 2009, published 2012)
In brackets after ≈: the same amount, converted by molar mass. Several values for one entry are separate records, joined by “and”; a condition that tells them apart may be missing. Equal entries are not always repeated. Where two headings read alike, the source gives them in different places.

How the values were obtained:
[1] = Pharmacokinetics of Compound 1 after single bolus IV injection in beagle dogs (plasma); format: in vivo; details: for AUC(0-inf) / C0 / clearance / MRT inf / Vd: iv; for MRT inf: read-out: MRT0-∞
Description: (§1) Male CD-1 mice, Sprague Dawley rats, and beagle dogs were administered Compound 1 intravenously. Compound 1 was preformulated as a sterile isotonic solution of 10 mg/mL in PBS. Specifically, male CD-1 mice were administered a single bolus IV injection of the Compound at 10 mg/kg, via a bolus IV injection into the tail vein. Two blood samples per mouse were collected by retro-orbital puncture into tubes containing the anticoagulant K2EDTA prior to dosing and at 0.033, 0.083, 0.25, 0.5, 1 and 24 hours. Rats were administered Compound 1 at 10 mg/kg via a bolus IV injection into the tail vein. Twelve blood samples per rat were collected via a jugular vein cannula into tubes containing the anticoagulant K2EDTA at various timepoints (i.e., 0.033, 0.083, 0.25, 0.5, 1, 2, 4, 6, 8, 10, 12, and 24 hours). Male beagle dogs were administered Compound 1 at 10 mg/kg through a temporary percutaneous catheter placed in a peripheral vein. Whole blood samples (0.5 mL) were collected from each dog prior to dosing and at 0.033, 0.083, 0.25, 0.5, 1, 2, 4, 6, 8, and 24 hours via direct venipuncture of a jugular or cephalic vein into tubes containing the anticoagulant K2EDTA. A sparse sampling method was employed to conserve animals and provide the best data possible from fewer mice. Samples were centrifuged, and plasma was collected and transferred into a new tube and frozen at −80° C. until they were analyzed.
(§2) Blood, urine, and kidney samples collected over 24 hours were analyzed for Compound 1 levels using LC-MS/MS. Method performance was acceptable in the concentration ranges necessary to determine plasma levels. Compound 1 plasma concentrations were determined by comparing Compound 1 concentration in the sample to a standard curve derived from LC-MS/MS measurements of the analyte. The standard curve fit was linear with a 1/x^2 weighting.
(§3) Bioanalytical data analyses were carried out using Analyst software (version 1.4.1, Applied Biosystems, Toronto, ON, Canada). […] PK parameters were determined by noncompartmental analysis using WinNonLin. Plasma protein binding was determined using equilibrium dialysis. In vitro stability was determined using commercially available plasma, microsomes and hepatocytes.

[2] = Plasma protein binding by equilibrium dialysis; format: in vitro ADME
Description: as §3

[3] = Guinea pig toxicokinetics of Compound 1; format: in vivo, guinea pigs
Description: Additionally, four groups of four male and four female animals were utilized for toxicokinetic (TK) sampling and received the control or test article in the same manner as the main study groups at respective dose levels of 0 (Vehicle Control), 8, 30, or 80 mg/kg.
Physical examinations were conducted pretest on all animals and prior to study termination for main study animals. […] Blood samples for determination of the plasma concentrations of the test article were collected from TK animals at designated time points on Day 1 and Day 14. After blood collection, the TK animals were euthanized and the carcasses were discarded.

Enterobacteriaceae (EN) = experiment: MIC, broth microdilution, Brooklyn hospital isolates: Enterobacteriaceae subsets (amikacin-resistant, KPC+); format: cell-based
Description: In another study, the activity of Compound 1 against a collection of contemporary Gram-negative bacteria was determined. Unique patient isolates of P. aeruginosa (PA), A. baumannii (AB), K. pneumoniae (KP), E. coli (EC), and Enterobacter spp. (EB) from prior surveys at 16 Brooklyn, N.Y. hospitals were selected based on resistance patterns. The majority of isolates were fingerprinted by automated ribotyping. MICs were performed by broth microdilution. PCR was used to identify aminoglycoside-modifying enzymes (AMEs) in AB and KP and the KPC gene in Enterobacteriaceae (EN). The expression of the efflux genes mexA, C, E and X in PA, and adeB in AB was assessed by real-time RT-PCR.

[4] = Pharmacokinetics of Compound 1 after single bolus IV injection in rats; format: in vivo, Sprague Dawley rats; details: for half-life / AUC(0-inf) / C0 / clearance / MRT inf / Vd: Sprague Dawley, rat, plasma, 10 mg/kg
Description: as §1, §2, §3

[5] = test system: coagulase-negative staphylococci (CoNS); experiment: MIC, CLSI broth microdilution, worldwide isolates: coagulase-negative staphylococci; format: cell-based
Text: In the first study, a total of 235 isolates were collected from medical centers worldwide and tested for susceptibility to Compound 1 and comparator agents by CLSI broth microdilution methods. […] Non-ENT GN pathogens included WT P. aeruginosa (PSA) and Acinetobacter spp. (ACB), and carbapenem (CARB)-R strains, including those with MBL and OXA enzymes, SA and coagulase-negative staphylococci (CoNS) included oxacillin-susceptible (MSSA/MS-CoNS) and —R (MRSA/MR-CoNS) strains.
Minimum inhibitory concentrations (MIC) were determined by reference Clinical and Laboratory Standards Institute (CLSI) broth microdilution methods per M7-A7 [2006]. Briefly, serial two-fold dilutions of Compound 1 and comparator AGs (together, “the test compounds”) were prepared at 2× concentration in appropriate diluent. The dilutions were mixed in 96-well assay plates with bacterial inoculum. Bacteria were suspended in sterile saline and added to each assay plate to obtain a final concentration of 5.5×10^5 CFU/mL. The plates were incubated at 35° C. for 20 hours in ambient air. […] After incubation, assay plates were read using a microtiter plate reader at 600 nm.

[6] = Pharmacokinetics of Compound 1 after single bolus IV injection in mice; format: in vivo, CD-1 mice; details: 10 mg/kg single bolus IV; for C0: 10 mg/kg
Description: as §1, §2, §3

[7] = beagle dogs, 10 mg/kg single bolus IV, Mean ± SD, 10 mg/kg
[8] = male, beagle, dog, plasma, 10 mg/kg, beagle dogs, 10 mg/kg single bolus IV, Dog 601
[9] = male, beagle, dog, plasma, 10 mg/kg, beagle dogs, 10 mg/kg single bolus IV, Dog 602
[10] = male, beagle, dog, plasma, 10 mg/kg, beagle dogs, 10 mg/kg single bolus IV, Dog 603
[11] = male, beagle, dog, plasma, 10 mg/kg, beagle dogs, 10 mg/kg single bolus IV, Mean ± SD
[12] = iv, 10 mg/kg single bolus IV, Mean ± SD
[13] = iv, 10 mg/kg single bolus IV, Rat 101
[14] = iv, 10 mg/kg single bolus IV, Rat 102
[15] = iv, 10 mg/kg single bolus IV, Rat 103

SMILES: CN[C@@H]1[C@@H](O)[C@@H](O[C@@H]2[C@@H](O)[C@H](O[C@H]3OC(CNCCO)=CC[C@H]3N)[C@@H](N)C[C@H]2NC(=O)[C@@H](O)CCN)OC[C@]1(C)O [Compound 1, 6′-(2-Hydroxy-ethyl)-1-(4-amino-2(S)-hydroxy-butyryl)-sisomicin]
- HL Lambda Z ([1]; beagle dogs, 10 mg/kg single bolus IV, Dog 601): 1.18 h
- HL Lambda Z ([1]; beagle dogs, 10 mg/kg single bolus IV, Dog 602): 1.24 h
- HL Lambda Z ([1]; beagle dogs, 10 mg/kg single bolus IV, Dog 603): 1.23 h
- AUC0-∞ [1, 7]: 82600 ± 11500 ng·h/mL
- HL Lambda Z [1, 7]: 1.22 h and 1.22 ± 0.03 h
- half-life ([1]; male, beagle, dog, plasma, intravenous, 10 mg/kg, dogs, read-out: t½ (renal clearance) (converted)): ~60 min
- AUC(0-inf) [1, 8]: 69400 ng·h/mL
- C0 [1, 8]: 134 µg/mL
- clearance [1, 8]: 2.4 mL/min/kg
- MRT inf [1, 8]: 75.6 min
- Vd ([1]; male, beagle, dog, plasma, 10 mg/kg, beagle dogs, 10 mg/kg single bolus IV, Dog 601, read-out: Vss): 0.181 L
- AUC(0-inf) [1, 9]: 88700 ng·h/mL
- C0 [1, 9]: 119 µg/mL
- clearance [1, 9]: 1.88 mL/min/kg
- MRT inf [1, 9]: 79.2 min
- Vd ([1]; male, beagle, dog, plasma, 10 mg/kg, beagle dogs, 10 mg/kg single bolus IV, Dog 602, read-out: Vss): 0.149 L
- AUC(0-inf) [1, 10]: 89700 ng·h/mL
- C0 [1, 10]: 106 µg/mL
- clearance [1, 10]: 1.85 mL/min/kg
- MRT inf [1, 10]: 87 min
- Vd ([1]; male, beagle, dog, plasma, 10 mg/kg, beagle dogs, 10 mg/kg single bolus IV, Dog 603, read-out: Vss): 0.162 L
- AUC(0-inf) [1, 11]: 83000 ng·h/mL
- C0 [1, 11]: 120 µg/mL
- clearance [1, 11]: 2.05 mL/min/kg
- MRT inf [1, 11]: 80.4 min
- Vd ([1]; male, beagle, dog, plasma, 10 mg/kg, beagle dogs, 10 mg/kg single bolus IV, Mean ± SD, read-out: Vss): 0.164 ± 0.016 L
- Vd ([1]; male, beagle, dog, plasma, 10 mg/kg, beagle dogs, 10 mg/kg single bolus IV, mean, read-out: volume of distribution at steady state): 0.164 L/kg
- fraction unbound [2]: > 0.8
- guinea pig AUC relative to average human AUC at proposed clinical dose ([3]; 80 mg/kg/day guinea pig vs 15 mg/kg human): 1.5 ×
- AUC ([3]; both sexes, Crl:HA (Albino Hartley), guinea pig, plasma, subcutaneous, guinea pigs, 80 mg/kg/day): 370000 ng·h/mL
- MIC50 (Enterobacteriaceae (EN)): 0.5 µg/mL (≈ 0.844 µM)
- MIC90 (Enterobacteriaceae (EN); Amikacin-Resistant-EN (n = 35)): 2 µg/mL (≈ 3.37 µM)
- MIC50 (Enterobacteriaceae (EN); KPC +− EN (n = 24)): 0.5 µg/mL (≈ 0.844 µM)
- MIC90 (Enterobacteriaceae (EN); KPC +− EN (n = 24)): 4 µg/mL (≈ 6.75 µM)
- tissue distribution [4]: distributed to rat kidneys
- half-life ([4]; intravenous, read-out: t½ (renal clearance) (converted)): ~60 min
- AUC(0-inf) [4, 12]: 15700 ng·h/mL
- C0 [4, 12]: 37.5 µg/mL
- clearance [4, 12]: 10.8 mL/min/kg
- MRT inf ([4]; iv, 10 mg/kg single bolus IV, Mean ± SD, read-out: MRT0-∞): 42 min
- Vd ([4]; iv, 10 mg/kg single bolus IV, Mean ± SD, read-out: Vss): 0.437 L/kg
- half-life ([4]; iv, 10 mg/kg single bolus IV, Mean ± SD, read-out: t1/2 (converted)): 56.4 min
- AUC(0-inf) [4, 13]: 13800 ng·h/mL
- C0 [4, 13]: 41.7 µg/mL
- clearance [4, 13]: 12.1 mL/min/kg
- MRT inf ([4]; iv, 10 mg/kg single bolus IV, Rat 101, read-out: MRT0-∞): 36 min
- Vd ([4]; iv, 10 mg/kg single bolus IV, Rat 101, read-out: Vss): 0.403 L/kg
- half-life ([4]; iv, 10 mg/kg single bolus IV, Rat 101, read-out: t1/2 (converted)): 57 min
- AUC(0-inf) [4, 14]: 18500 ng·h/mL
- C0 [4, 14]: 42.2 µg/mL
- clearance [4, 14]: 9.02 mL/min/kg
- MRT inf ([4]; iv, 10 mg/kg single bolus IV, Rat 102, read-out: MRT0-∞): 48 min
- Vd ([4]; iv, 10 mg/kg single bolus IV, Rat 102, read-out: Vss): 0.434 L/kg
- half-life ([4]; iv, 10 mg/kg single bolus IV, Rat 102, read-out: t1/2 (converted)): 55.8 min
- AUC(0-inf) [4, 15]: 14800 ng·h/mL
- C0 [4, 15]: 28.8 µg/mL
- clearance [4, 15]: 11.3 mL/min/kg
- MRT inf ([4]; iv, 10 mg/kg single bolus IV, Rat 103, read-out: MRT0-∞): 42 min
- Vd ([4]; iv, 10 mg/kg single bolus IV, Rat 103, read-out: Vss): 0.473 L/kg
- half-life ([4]; iv, 10 mg/kg single bolus IV, Rat 103, read-out: t1/2 (converted)): 55.8 min
- Cmax and exposure (AUC) dose linearity ([4]; intravenous dosing): dose linear to 75 mg/kg
- MIC50 ([5]; CONS isolates): ≤ 0.25 µg/mL
- MIC90 ([5]; CONS isolates): ≤ 0.25 µg/mL
- Cumulative % inhibited at Cmpd. MIC ≦0.5 ([5]; CoNS (20)): 100.0%
- C0 [6]: 87.6 µg/mL
- AUC(0-inf) ([6]; male, CD-1, mouse, plasma): 18500 ng·h/mL
- clearance ([6]; male, CD-1, mouse, plasma): 9.02 mL/min/kg
- half-life ([6]; male, CD-1, mouse, plasma): 84 min
- MRT inf ([6]; male, CD-1, mouse, plasma, read-out: MRT0-∞): 36 min
- Vd ([6]; male, CD-1, mouse, plasma, read-out: Vss): 0.34 L
- Vd ([6]; male, CD-1, mouse, plasma, read-out: volume of distribution at steady state (Vss)): 0.34 L/kg
- C0 ([6]; male, CD-1, mouse, plasma, iv, read-out: C0): 88 µg/mL
